Measurements taken from article PMC11607601, “Absence of the dolichol synthesis gene DHRSX leads to N-glycosylation defects in Lec5 and Lec9 Chinese hamster ovary cells” (The Journal of Biological Chemistry, 2024).

How the values were obtained:
Format in all cases: biochemical
[1] = molecular target: T1, chDHRSX (Chinese hamster DHRSX) (Cricetulus griseus, UniProt A0A9J7GKV7); assay: LC-MS of polyprenal-18 formation, Michaelis-Menten fit; settings: 4 μM polyprenol mixture, pH 8.0, 37 °C, PC/PE lipids
T1 construct: gene LOC113838539; N-terminal 6xHis tag, pET15b, E. coli BL21(DE3), HisTrap native purification
T1 sequence (A0A9J7GKV7 1-328): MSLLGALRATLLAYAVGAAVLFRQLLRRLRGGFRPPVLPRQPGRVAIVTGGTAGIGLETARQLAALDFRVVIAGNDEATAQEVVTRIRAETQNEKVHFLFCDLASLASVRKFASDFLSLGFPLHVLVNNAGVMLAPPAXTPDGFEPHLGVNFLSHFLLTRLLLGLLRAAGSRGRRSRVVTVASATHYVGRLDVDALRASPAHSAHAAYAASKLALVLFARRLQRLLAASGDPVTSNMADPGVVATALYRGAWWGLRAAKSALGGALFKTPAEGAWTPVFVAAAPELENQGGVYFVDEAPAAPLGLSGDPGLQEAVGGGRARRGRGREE
Text: LC-MS of polyprenal-18 formation, Michaelis-Menten fit on chDHRSX (Chinese hamster DHRSX)

hDHRSX (human DHRSX) [2] = molecular target: T2, hDHRSX (human DHRSX) (Homo sapiens, UniProt Q8N5I4); assay: LC-MS of polyprenal-18 formation in membranes; settings: polyprenol mixture 5 μg/ml, 5 mM NAD+, pH 8.0, 37 °C, 2 h
T2 construct: pUB83 hDHRSX-N-His lentiviral expression in DHRSX-null Lec5 and Lec9 CHO cells; membrane preparation
T2 sequence (Q8N5I4 2-330): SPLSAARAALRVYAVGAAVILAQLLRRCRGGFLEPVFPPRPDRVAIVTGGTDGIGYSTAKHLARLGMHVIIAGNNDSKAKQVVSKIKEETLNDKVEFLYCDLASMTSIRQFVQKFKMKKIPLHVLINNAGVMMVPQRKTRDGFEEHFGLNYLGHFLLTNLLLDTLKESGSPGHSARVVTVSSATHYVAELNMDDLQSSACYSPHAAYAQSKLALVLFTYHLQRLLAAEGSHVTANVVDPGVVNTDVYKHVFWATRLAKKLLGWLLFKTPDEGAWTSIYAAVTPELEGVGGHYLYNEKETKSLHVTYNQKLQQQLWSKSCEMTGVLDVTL

hDHRSX (human DHRSX) [3] = molecular target: T2, hDHRSX (human DHRSX); assay: LC-MS of dolichol-18 formation in membranes; settings: dolichal mixture 5 μg/ml, 5 mM NADPH, pH 8.0, 37 °C, 2 h
[4] = molecular target: T1, chDHRSX (Chinese hamster DHRSX); assay: LC-MS of dolichol-18 formation, Michaelis-Menten fit; settings: 4 μM dolichal mixture, pH 8.0, 37 °C, PC/PE lipids
Text: LC-MS of dolichol-18 formation, Michaelis-Menten fit on chDHRSX (Chinese hamster DHRSX)

For `NC(=O)c1ccc[n+]([C@@H]2O[C@H](COP(=O)(O)OP(=O)(O)OC[C@H]3O[C@@H](n4cnc5c(N)ncnc54)[C@H](O)[C@@H]3O)[C@@H](O)[C@H]2O)c1` [NAD^+], the Km ([1]; read-out: NAD^+) was 81 ± 36 µM and the “LC-MS of polyprenal-18 formation in membranes” value (hDHRSX (human DHRSX) [2]) was “expression of hDHRSX in Lec5 and Lec9 cells increased the formation of polyprenal”.

`NC(=O)c1ccc[n+]([C@@H]2O[C@H](COP(=O)(O)OP(=O)(O)OC[C@H]3O[C@@H](n4cnc5c(N)ncnc54)[C@H](OP(=O)(O)O)[C@@H]3O)[C@@H](O)[C@H]2O)c1` [NADP^+] showed a Km ([1]; read-out: NADP^+) of 96 ± 43 µM.

For `NC(=O)C1=CN([C@@H]2O[C@H](COP(=O)(O)OP(=O)(O)OC[C@H]3O[C@@H](n4cnc5c(N)ncnc54)[C@H](OP(=O)(O)O)[C@@H]3O)[C@@H](O)[C@H]2O)C=CC1` [NADPH], the “LC-MS of dolichol-18 formation in membranes” value (hDHRSX (human DHRSX) [3]) was “expression of hDHRSX strongly increased dolichol formation” and the Km ([4]; read-out: NADPH) was 26 ± 8 µM.

With `NC(=O)C1=CN([C@@H]2O[C@H](COP(=O)(O)OP(=O)(O)OC[C@H]3O[C@@H](n4cnc5c(N)ncnc54)[C@H](O)[C@@H]3O)[C@@H](O)[C@H]2O)C=CC1` [NADH] the Km ([4]; read-out: NADH) was 34 ± 7 µM.
